Measurements as given in patent publication US11564947B2, “Methods and compositions for cellular immunotherapy” (eFFECTOR Therapeutics, Inc., priority 2017, dated 2023).

Assays:
CD4+ T cells = assay: T cell memory formation, mixed lymphocyte reaction (MLR) assay, CD4+ cells; assay type: cell-based, mouse; conditions: MLR in presence of Compound 107
Procedure: (§1) Spleens were isolated from OT-I and processed into a single cell suspension. Red blood cells (RBCs) were lysed using RBC lysis solution. Splenocytes (2×10^6 cells/ml) were cultured in complete media (10% FBS in DMEM) and stimulated with 5 μg/ml OVA MHC class I epitope peptide (SIINFEKL, SEQ ID NO:1) in the absence or presence of 0.01 μM, 0.1 μM, 1.0 μM, 3.0 μM, or 10 μM of MNK-specific inhibitor, Compound 107, for 48 hrs. For the mixed lymphocyte reaction (MLR) assay, peritoneal macrophages were first isolated from BALB/c mice by peritoneal wash with chilled DMEM media. This lavage was plated in a 24 well plate for 2 h at 37° C. After 2 h, non-adherent cells were washed to remove non-macrophage populations. The adherent cells (primarily peritoneal macrophages) were cultured in complete media in the absence or presence of the indicated Compound 107 concentrations for 24 h. After 24 h, panned splenocytes (enriched in T cells) from C57BL/6 mice were added to the macrophage culture in the absence or presence of Compound 107 for an additional 4 days.
(§2) The cells were harvested from the MLR, washed and stained with Horizon™ FVS, anti-CD4, anti-CD8, anti-CD44 and anti-CD62L antibodies. The cells were analyzed by flow cytometry (Attune NXT, ThermoFisher) and FlowJo analysis software (FlowJo LLC, Ashland Oreg.). CD8+ and CD4+ cells populations were analyzed for expression of CD44 and CD62L. […]

E.G7-OVA tumors = assay: In vivo tumor growth inhibition; parameters: species or system athymic nude mice
Procedure: E.G7-OVA tumor cells (2×10^6) were implanted subcutaneously into athymic nude mice. On day 7 post-implant, tumors were measured (˜192 mm^3) and tumor-bearing animals were randomized into 6 groups. T cells purified from OT-I mouse spleens were cultured for 48 h in vitro with DMSO/PBS control alone, 50 μg/ml SIINFEKL peptide (SEQ ID NO:1) alone, 1 μM Compound 107, or the combination of 50 μg/ml SIINFEKL (SEQ ID NO:1) and 1 μM Compound 107. The in vitro treated OT-I T cells were adoptively transferred into animals from the appropriate groups (2×10^6 cells/mouse) by tail vein injection. Animals were dosed in vivo with vehicle or 1 mg/kg Compound 107 and tumor size and body weight was monitored during the course of the study.

CD8+ T cells [1] = assay: T cell memory formation, mixed lymphocyte reaction (MLR) assay, CD8+ cells; assay type: cell-based, mouse
Procedure: as §1, §2

CD8+ T cells [2] = assay: T cell memory formation, OVA MHC class I epitope peptide (SIINFEKL) stimulation of OT-I splenocytes; assay type: cell-based, mouse; conditions: 5 μg/ml SIINFEKL peptide plus Compound 107 0.01-10 μM, 48 hrs, peptide alone 32%
Procedure: as §1, §2

[3] = test system: OT-I memory T cells (CD45.2+CD8+CD44+) in spleen; assay: Long-term memory/recall response after adoptive transfer of OT-I T cells; assay type: in vivo, B6.SJL mice
Procedure: Spleens were isolated from OT-I mice and CD3^+ T cells were isolated using the MojoSort Mouse CD3 T Cell Isolation Kit (Biolegend, San Diego Calif.). OT-I T cells (2×10^6 cells) were adoptively transferred into B6.SJL mice through intravenous tail vein injection. Mice were dosed orally with vehicle or 1 mg/kg Compound 107 24 hrs later and vaccinated subcutaneously with SIINFEKL peptide (SEQ ID NO:1) (50 μg/mouse). Mice were dosed with vehicle or 1 mg/kg Compound 107 for an additional six days. On day 21 post-immunization, selected groups were boosted with an additional injection of SIINFEKL peptide (SEQ ID NO:1) (50 μg/mouse). On day 24, spleens were harvested from animals and processed into a single cell suspension for flow cytometry analysis. Cells were stained with BD Horizon Fixable Viability Stain and antibodies against CD45.2, CD8, and CD44. Cells were analyzed using an Attune NXT flow cytometer and data was processed using FlowJo 10.1 software.

## Cc1cc(Nc2cc(N)ncn2)c(=O)n2c1C(=O)NC21CCCCC1.Cl [Compound 107]
CD4+ T cells; MLR alone 21%
  pool of TCM CD4+ T cells: 28-39%
CD4+ T cells; MLR alone 25%
  TEM CD4+ T cell pool: 16-23%
E.G7-OVA tumors; OT-I cells pre-treated in vitro with SIINFEKL and Compound 107, animals also dosed in vivo with 1 mg/kg Compound 107, compared with the vehicle-dosed group (55%)
  tumor growth inhibition (TGI): did not show any further increase in TGI
E.G7-OVA tumors; adoptive transfer of SIINFEKL-pre-treated OT-I cells, animals dosed 1 mg/kg Compound 107 daily, 8 days post-transfer
  tumor growth inhibition (TGI): 45%
E.G7-OVA tumors; no adoptive transfer of OT-I T cells, 1 mg/kg Compound 107 daily vs vehicle, 8 days post-transfer
  tumor growth inhibition (TGI): 16%
E.G7-OVA tumors; vehicle-dosed animals, OT-I cells pre-treated in vitro with SIINFEKL and 1 μM Compound 107, 8 days post-transfer
  tumor growth inhibition (TGI): 55%
CD8+ T cells [1]; MLR in presence of Compound 107, MLR alone 15%
  pool of TCM CD8+ T cells: 20-29%
CD8+ T cells [1]; MLR, 0.01-3 μM of Compound 107, MLR alone 16%
  TEM pool of CD8+ T cells: 8-11%
CD8+ T cells [2]
  distribution of CD8+ T cells in the TCM pool (CD44high CD62Lhigh): 36-41%
[3]; immunized and boosted with SIINFEKL, 1 mg/kg oral during immunization, day 24, vs vehicle-treated immunized/boosted group
  percentage of OT-I memory T cells in spleen (% of total lymphocytes): significantly increased
[3]; un-immunized animals, 1 mg/kg oral, day 24
  population of OT-I memory T cells in spleen (% of total lymphocytes): unaffected
